From PMC6770320 (Cancers, 2019)
Blank lines part the entries; values can stand above or below the molecule they belong to.

Tests used:
[1] = biological target: T1, multidrug resistance protein 2 (MRP2) (Homo sapiens, UniProt Q92887); assay: inhibition of oxaliplatin-stimulated ([…]) vanadate-sensitive ATPase in membrane vesicles; […] reduction at […]; type: cell-based
T1 construct: gene ABCC2; membrane vesicles from Sf9 cells overexpressing human MRP2

[2] = biological target: T1, multidrug resistance protein 2 (MRP2); assay: inhibition of oxaliplatin-stimulated ([…]) vanadate-sensitive ATPase in membrane vesicles; […] reduction at […], no apparent effect at […]; type: cell-based
[3] = biological target: T1, multidrug resistance protein 2 (MRP2); assay: vanadate-sensitive ATPase stimulation in Sf9/MRP2 membrane vesicles, with control vesicles; type: biochemical
From the text: vanadate-sensitive ATPase stimulation in Sf9/MRP2 membrane vesicles, with control vesicles on multidrug resistance protein 2 (MRP2) | oxaliplatin stimulated the vanadate-sensitive MRP2 ATPase activities in a concentration-dependent manner

T1 sequence (Q92887 whole entry): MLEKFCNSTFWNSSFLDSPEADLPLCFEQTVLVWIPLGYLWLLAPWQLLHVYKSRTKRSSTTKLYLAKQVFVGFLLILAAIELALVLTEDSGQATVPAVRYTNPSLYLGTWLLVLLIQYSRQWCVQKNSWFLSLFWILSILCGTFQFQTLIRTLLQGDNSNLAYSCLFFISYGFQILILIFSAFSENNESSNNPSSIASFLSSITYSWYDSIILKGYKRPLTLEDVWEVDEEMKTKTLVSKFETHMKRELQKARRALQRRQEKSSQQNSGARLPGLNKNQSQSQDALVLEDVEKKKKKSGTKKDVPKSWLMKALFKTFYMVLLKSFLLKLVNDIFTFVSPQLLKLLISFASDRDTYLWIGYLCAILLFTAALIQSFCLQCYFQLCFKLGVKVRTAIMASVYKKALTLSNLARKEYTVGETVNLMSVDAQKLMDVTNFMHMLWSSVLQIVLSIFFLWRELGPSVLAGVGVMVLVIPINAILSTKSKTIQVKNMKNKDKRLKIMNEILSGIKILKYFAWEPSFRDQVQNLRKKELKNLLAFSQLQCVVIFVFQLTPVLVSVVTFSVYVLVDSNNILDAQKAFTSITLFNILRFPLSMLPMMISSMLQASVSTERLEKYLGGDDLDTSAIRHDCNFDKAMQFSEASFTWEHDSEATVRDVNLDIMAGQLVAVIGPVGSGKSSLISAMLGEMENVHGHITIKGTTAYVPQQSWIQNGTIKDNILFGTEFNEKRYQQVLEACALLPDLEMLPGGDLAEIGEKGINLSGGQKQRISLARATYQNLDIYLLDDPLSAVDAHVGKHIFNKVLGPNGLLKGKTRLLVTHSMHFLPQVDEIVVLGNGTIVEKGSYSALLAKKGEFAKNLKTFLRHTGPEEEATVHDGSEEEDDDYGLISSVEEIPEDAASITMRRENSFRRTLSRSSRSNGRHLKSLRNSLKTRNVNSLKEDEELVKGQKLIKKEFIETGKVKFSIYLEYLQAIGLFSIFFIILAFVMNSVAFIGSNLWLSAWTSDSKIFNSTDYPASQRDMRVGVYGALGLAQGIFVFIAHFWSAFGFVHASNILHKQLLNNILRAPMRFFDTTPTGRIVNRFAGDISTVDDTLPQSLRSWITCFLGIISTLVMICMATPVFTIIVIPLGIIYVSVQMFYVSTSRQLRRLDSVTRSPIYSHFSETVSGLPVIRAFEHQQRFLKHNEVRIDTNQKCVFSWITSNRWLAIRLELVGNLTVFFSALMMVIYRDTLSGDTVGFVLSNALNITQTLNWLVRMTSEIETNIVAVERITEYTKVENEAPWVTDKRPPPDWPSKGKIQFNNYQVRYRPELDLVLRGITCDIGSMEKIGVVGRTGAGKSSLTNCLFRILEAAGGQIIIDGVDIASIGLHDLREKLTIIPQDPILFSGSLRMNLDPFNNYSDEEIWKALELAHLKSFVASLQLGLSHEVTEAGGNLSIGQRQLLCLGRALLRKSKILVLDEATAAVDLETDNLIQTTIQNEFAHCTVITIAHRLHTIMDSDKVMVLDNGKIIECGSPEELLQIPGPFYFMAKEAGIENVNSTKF

Compound: CCc1oc2ccccc2c1C(=O)c1cc(Br)c(O)c(Br)c1 [benzbromarone]
- inhibition at 100 µM [1]: 90%

- inhibition at 60 µM [2]: 40%
Compound: O=c1c(O)c(-c2cc(O)c(O)c(O)c2)oc2cc(O)cc(O)c12 [myricetin]

Compound: O=C1[O][Pt]2([NH][C@@H]3CCCC[C@H]3[NH]2)[O]C1=O [oxaliplatin]
- EC50 [3]: 8.3 ± 0.7 µM
